Laboratory results taken from PubChem BioAssay AID1963851 (Molecular Pharmacology Branch, DTP, NCI, 2024).

Test system: 188146-221-R-J1-PDC complex spheroid viability
Assay: Anticancer human tumor 188146-221-R-J1-PDC patient-derived colon adenocarcinoma cell line growth inhibition [POLQ]
Settings: for IC50: curve of first compound; for viability, T/C: stronger effect = lower value
Procedure, shortened: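 Complex spheroid viability model combining PDC tumour cells with endothelial (HUVEC) and MSC stromal cells. Novobiocin, ART-558 or RP6685 were tested singly and in combination with standard and investigational anticancer drugs. Each was titrated in half-log steps from near clinical Cmax, or from 10 microM where Cmax was unknown.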

[1] = second compound 0.0316 µM, first compound 0.0316 µM
[2] = second compound 0.0316 µM, first compound 0.1 µM
[3] = second compound 0.0316 µM, first compound 0.316 µM
[4] = second compound 0.0316 µM, first compound 1 µM
[5] = second compound 0.0316 µM, first compound 3.16 µM
[6] = second compound 0.0316 µM, first compound 10 µM
[7] = second compound 0.1 µM, first compound 0.0316 µM
[8] = second compound 0.1 µM, first compound 0.1 µM
[9] = second compound 0.1 µM, first compound 0.316 µM
[10] = second compound 0.1 µM, first compound 1 µM
[11] = second compound 0.1 µM, first compound 3.16 µM
[12] = second compound 0.1 µM, first compound 10 µM
[13] = second compound 0.316 µM, first compound 0.0316 µM
[14] = second compound 0.316 µM, first compound 0.1 µM
[15] = second compound 0.316 µM, first compound 0.316 µM
[16] = second compound 0.316 µM, first compound 1 µM
[17] = second compound 0.316 µM, first compound 3.16 µM
[18] = second compound 0.316 µM, first compound 10 µM
[19] = second compound 1 µM, first compound 0.0316 µM
[20] = second compound 1 µM, first compound 0.1 µM
[21] = second compound 1 µM, first compound 0.316 µM
[22] = second compound 1 µM, first compound 1 µM
[23] = second compound 1 µM, first compound 3.16 µM
[24] = second compound 1 µM, first compound 10 µM
[25] = second compound 3.16 µM, first compound 0.0316 µM
[26] = second compound 3.16 µM, first compound 0.1 µM
[27] = second compound 3.16 µM, first compound 0.316 µM
[28] = second compound 3.16 µM, first compound 1 µM
[29] = second compound 3.16 µM, first compound 3.16 µM
[30] = second compound 3.16 µM, first compound 10 µM
[31] = second compound 10 µM, first compound 0.0316 µM
[32] = second compound 10 µM, first compound 0.1 µM
[33] = second compound 10 µM, first compound 0.316 µM
[34] = second compound 10 µM, first compound 1 µM
[35] = second compound 10 µM, first compound 3.16 µM
[36] = second compound 10 µM, first compound 10 µM
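Note: spheroids exposed to compounds for seven days.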
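Throughout, for viability, T/C: 100% = DMSO vehicle control viability.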

Q: `CC(C)n1c(=O)n(C)c2cnc3cc(F)c(-c4ccc(OCCCN5CCCCC5)nc4)cc3c21` + Nc1ccc(C#CCN(C(=O)Cc2ncc(C(F)(F)F)cc2C(F)(F)F)c2ccc(F)cc2)nn1 was tested. Which IC50 (second compound 0.0316 µM) did it give?
A: > 10 µM

Q: What about the IC50 (second compound 0.1 µM) of the same molecule?
A: > 10 µM

Q: What about the IC50 (second compound 0.316 µM) of the same molecule?
A: > 10 µM

Q: What about the IC50 (second compound 1 µM) of the same molecule?
A: > 10 µM

Q: What about the IC50 (second compound 3.16 µM) of the same molecule?
A: > 10 µM

Q: And the IC50 (second compound 10 µM)?
A: > 10 µM

Q: What about the viability, T/C [1] of the same molecule?
A: 87.3%

Q: And the viability, T/C [2]?
A: 106%

Q: What about the viability, T/C [3] of the same molecule?
A: 95.4%

Q: And the viability, T/C [4]?
A: 97.9%

Q: What about the viability, T/C [5] of the same molecule?
A: 83.6%

Q: What about the viability, T/C [6] of the same molecule?
A: 80.7%

Q: And the viability, T/C [7]?
A: 101%

Q: What about the viability, T/C [8] of the same molecule?
A: 107%

Q: And the viability, T/C [9]?
A: 94.9%

Q: What about the viability, T/C [10] of the same molecule?
A: 92.2%

Q: And the viability, T/C [11]?
A: 92.6%

Q: What about the viability, T/C [12] of the same molecule?
A: 83.7%

Q: What about the viability, T/C [13] of the same molecule?
A: 94.8%

Q: What about the viability, T/C [14] of the same molecule?
A: 94.7%

Q: What about the viability, T/C [15] of the same molecule?
A: 89.4%

Q: And the viability, T/C [16]?
A: 96.8%

Q: What about the viability, T/C [17] of the same molecule?
A: 103%

Q: And the viability, T/C [18]?
A: 80.9%

Q: What about the viability, T/C [19] of the same molecule?
A: 104%

Q: What about the viability, T/C [20] of the same molecule?
A: 101%

Q: What about the viability, T/C [21] of the same molecule?
A: 88%

Q: And the viability, T/C [22]?
A: 88.9%

Q: What about the viability, T/C [23] of the same molecule?
A: 93.7%

Q: And the viability, T/C [24]?
A: 86.9%

Q: What about the viability, T/C [25] of the same molecule?
A: 99%

Q: And the viability, T/C [26]?
A: 98.3%

Q: And the viability, T/C [27]?
A: 99.5%

Q: What about the viability, T/C [28] of the same molecule?
A: 84.2%

Q: What about the viability, T/C [29] of the same molecule?
A: 95.3%

Q: What about the viability, T/C [30] of the same molecule?
A: 87.8%

Q: And the viability, T/C [31]?
A: 105%

Q: What about the viability, T/C [32] of the same molecule?
A: 95.5%

Q: And the viability, T/C [33]?
A: 98.4%

Q: And the viability, T/C [34]?
A: 96.6%

Q: What about the viability, T/C [35] of the same molecule?
A: 97.9%

Q: And the viability, T/C [36]?
A: 84.1%

Q: For `COc1ccc([C@@H](O)c2cc(-c3ncnc4cc(N5CCOCC5)ccc34)c(F)cc2Cl)nn1` + Nc1ccc(C#CCN(C(=O)Cc2ncc(C(F)(F)F)cc2C(F)(F)F)c2ccc(F)cc2)nn1, which IC50 (second compound 0.0316 µM) is on record?
A: 6.82 µM

Q: What about the IC50 (second compound 0.1 µM) of the same molecule?
A: 6.9 µM

Q: And the IC50 (second compound 0.316 µM)?
A: > 10 µM

Q: What about the IC50 (second compound 1 µM) of the same molecule?
A: 8.15 µM

Q: What about the IC50 (second compound 3.16 µM) of the same molecule?
A: 7.39 µM

Q: What about the IC50 (second compound 10 µM) of the same molecule?
A: 6.86 µM

Q: What about the viability, T/C [1] of the same molecule?
A: 103%

Q: And the viability, T/C [2]?
A: 118%

Q: And the viability, T/C [3]?
A: 96.6%

Q: What about the viability, T/C [4] of the same molecule?
A: 87.6%

Q: And the viability, T/C [5]?
A: 65.1%

Q: And the viability, T/C [6]?
A: 42.5%

Q: What about the viability, T/C [7] of the same molecule?
A: 109%

Q: And the viability, T/C [8]?
A: 91.3%

Q: And the viability, T/C [9]?
A: 91.1%

Q: And the viability, T/C [10]?
A: 83.9%

Q: And the viability, T/C [11]?
A: 74.1%

Q: What about the viability, T/C [12] of the same molecule?
A: 39%

Q: And the viability, T/C [13]?
A: 122%

Q: And the viability, T/C [14]?
A: 95.3%

Q: And the viability, T/C [15]?
A: 95.5%

Q: What about the viability, T/C [16] of the same molecule?
A: 83.6%

Q: What about the viability, T/C [17] of the same molecule?
A: 82.5%

Q: And the viability, T/C [18]?
A: 44.5%

Q: And the viability, T/C [19]?
A: 103%

Q: What about the viability, T/C [20] of the same molecule?
A: 96.8%

Q: What about the viability, T/C [21] of the same molecule?
A: 91.9%

Q: And the viability, T/C [22]?
A: 87.2%

Q: And the viability, T/C [23]?
A: 69.8%

Q: What about the viability, T/C [24] of the same molecule?
A: 45.3%

Q: And the viability, T/C [25]?
A: 104%

Q: What about the viability, T/C [26] of the same molecule?
A: 102%

Q: And the viability, T/C [27]?
A: 110%

Q: What about the viability, T/C [28] of the same molecule?
A: 97.6%

Q: What about the viability, T/C [29] of the same molecule?
A: 81.7%

Q: What about the viability, T/C [30] of the same molecule?
A: 38.8%

Q: What about the viability, T/C [31] of the same molecule?
A: 102%

Q: What about the viability, T/C [32] of the same molecule?
A: 104%

Q: What about the viability, T/C [33] of the same molecule?
A: 103%

Q: And the viability, T/C [34]?
A: 91.6%

Q: And the viability, T/C [35]?
A: 63.9%

Q: What about the viability, T/C [36] of the same molecule?
A: 43.3%
